In one test the target is T1, human plasminogen (Homo sapiens, UniProt P00747).
T1 construct: gene PLG; commercial (BioVision), 1 microgram coated on polystyrene plate
As to the kind of experiment: competitive solid-phase binding assay (ELISA), displacement of GAPDH. The conditions noted are these: competition with 125 ng His-tagged bacterial GAPDH; EACA 1.25 to 10 mM; lysine analog. In general terms: ELISA stands for enzyme-linked immunosorbent assay.

Test [1] has as its target T2, LGp40 (GAPDH of L. gasseri) (Lactobacillus gasseri, UniProt A0A1V3Y2M1).
T2 construct: gene gap; His6-tagged, pET21b, E. coli BL21(DE3), Ni-NTA then Q column; 37 kDa; tetramer through crystal symmetry
As to the kind of experiment: X-ray crystallography, […] A. To be noted: NAD-binding site, Asp38 hydrogen bonds; crystals at pH 6.5.

Test [2] concerns the target LGp40, His-tagged recombinant glyceraldehyde-3-phosphate dehydrogenase (GAPDH) of Lactobacillus gasseri (Lactobacillus gasseri (BCRC14619)). As to the kind of experiment: crystal structure; X-ray, 1.88 A, space group I4(1)22; one LGp40 copy in the asymmetric unit, tetramer through crystal symmetry; crystals from 0.1 M sodium cacodylate pH 6.5, 16% w/v PEG 4000, 25 C.

From paper PMC9520948, “Moonlighting glyceraldehyde-3-phosphate dehydrogenase (GAPDH) protein of Lactobacillus gasseri attenuates allergic asthma via immunometabolic change in macrophages” (Journal of Biomedical Science, 2022) come the findings set out here.

T1 sequence (P00747 20-810): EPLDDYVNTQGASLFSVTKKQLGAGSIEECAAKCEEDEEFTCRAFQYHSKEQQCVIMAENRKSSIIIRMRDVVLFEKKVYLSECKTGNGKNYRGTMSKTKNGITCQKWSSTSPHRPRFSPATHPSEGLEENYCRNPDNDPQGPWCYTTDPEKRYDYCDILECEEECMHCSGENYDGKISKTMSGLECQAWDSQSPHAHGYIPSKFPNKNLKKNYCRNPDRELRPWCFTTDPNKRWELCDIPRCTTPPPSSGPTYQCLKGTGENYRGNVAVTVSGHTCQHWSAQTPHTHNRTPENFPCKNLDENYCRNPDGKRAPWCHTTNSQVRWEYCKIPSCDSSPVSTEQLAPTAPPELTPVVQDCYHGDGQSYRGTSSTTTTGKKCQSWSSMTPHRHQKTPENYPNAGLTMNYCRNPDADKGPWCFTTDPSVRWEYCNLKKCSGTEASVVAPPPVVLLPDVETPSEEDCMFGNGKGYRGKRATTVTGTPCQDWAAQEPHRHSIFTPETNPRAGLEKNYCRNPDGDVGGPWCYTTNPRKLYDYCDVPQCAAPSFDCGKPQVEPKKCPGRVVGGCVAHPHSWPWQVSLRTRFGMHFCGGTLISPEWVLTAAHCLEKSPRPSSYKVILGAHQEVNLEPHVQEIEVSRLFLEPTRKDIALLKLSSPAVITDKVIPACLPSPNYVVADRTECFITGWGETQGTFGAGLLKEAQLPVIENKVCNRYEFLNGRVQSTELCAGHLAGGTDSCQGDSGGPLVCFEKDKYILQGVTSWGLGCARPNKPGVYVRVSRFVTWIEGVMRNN

As for `NCCCCCC(=O)O` [EACA], the “competitive solid-phase binding assay (ELISA), displacement of GAPDH” value on human plasminogen is “a competitive binding assay using EACA, a lysine analog”. `NC(=O)c1ccc[n+]([C@@H]2O[C@H](COP(=O)(O)OP(=O)(O)OC[C@H]3O[C@@H](n4cnc5c(N)ncnc54)[C@H](O)[C@@H]3O)[C@@H](O)[C@H]2O)c1` [NAD^+]: in test [1], the “X-ray crystallography, 1.88 A” value is given as “contributes two hydrogen-bond interactions with NAD^+ to provide stronger binding forces”. Regarding “LGp40, His-tagged recombinant glyceraldehyde-3-phosphate dehydrogenase (GAPDH) of Lactobacillus gasseri (enzyme)”, in test [2], the stoichiometry N (usually the number of molecules, sites or subunits per partner or assembly) was found to be 4.
